These results are taken from US9029553B2, “2-anilino nicotinyl linked 2-amino benzothiazole conjugates and process for the preparation thereof” (Council of Scientific & Industrial Research, priority 2011, dated 2015).

Data set [1] deals with Ehrlich Ascites Carcinoma (EAC). Put plainly: In vivo anticancer activity, Ehrlich ascites carcinoma. The arrangement: species or system Swiss mice. The note with it: for No. of deaths / toxicity to animals: EAC mice. How it is done:
Model: Ehrlich Ascites Carcinoma (EAC)
Ehrlich ascites carcinoma (EAC) cells were collected from the peritoneal cavity of the swiss mice harbouring 8-10 days old ascitic tumor. 1×10^7 EAC cells were injected intraperitoneally in Swiss mice selected for the experiment on day 0. The next day, animals were randomized and divided into different groups. The treatment groups contained 7 animals each and control group contained 10 animals. Treatment groups were treated with different doses of test substances intraperitoneally from day 1-9. One of the treatment group received 5-fluorouracil (20 mg/kg, i.p) and it served as positive control. The tumor bearing control group was similarly administered normal saline (0.2 ml, i.p.). On day 12, animals were sacrificed and ascitic fluid was collected from peritoneal cavity of each mouse for the evaluation of tumor growth. Percent tumor growth inhibition was calculated based on the total number of tumor cells present in the peritoneal cavity as on day 12 of the experiment using the following formula.

Data set [2] deals with normal monkey kidney CV-1 cells. In words: MTT cytotoxicity in normal cells. The class given is cell-based. The note with it: Primates. The procedure: These compounds were also evaluated for their cytotoxic potential in normal cells and for these purpose their IC50 value were also determine in normal monkey kidney CV-1 cells by using MTT method. The ratios of normal to cancer cells IC50 value were ranges from 10-1000 times (Table 5).

The next data set deals with HL-60 cells. In words: Flow cytometric analysis of reactive oxygen species (DCFH-DA). The class given is cell-based, human. The following applies: 1 μM. How it is done: It was clear that these compounds were cytotoxic and induce apoptosis in HL-60 cells, now we have to found out the early events which were responsible for the induction of apoptosis like reactive oxygen species (ROS) or nitric oxide (NO) generation. Intracellular peroxide (ROS) in the cells was measured by DCFH-DA by using flow cytometry. Cells were incubated with tested compounds at 1 μM for 24 h in HL-60 cells and analyzed by flow cytometry after double staining with DCFH-DA (FIG. 7). Cells were analyzed for fluorescence intensity in FL1 vs. cell count. There was hardly any DCF fluorescence (ROS positive cells) in the untreated HL-60 cells, and this status remained unchanged when cells were incubated for 24 hr with compounds 7 and 8. […] Compounds 4 and 6 also induce the generation of peroxide in HL-60 cells (31 and 16% increase, respectively).

The test system of data set [3] is SiHa. In words: MTT inhibition of cell proliferation. The class given is cell-based. The following applies: Homo sapiens, 48 h. From the text:
(§1) In order to determine the mode of action of cell death in cancer cells, first we explored the cytotoxic potential of different structural analogs of benzothiazoles on different human cancer cell lines. […] These compounds have limited or no cytotoxicity to cervical cancer SiHa, HeLa cells, breast cancer MCF-7 cells and colon cancer HCT-15 cells.

The test system of data set [4] is MCF-7. In words: MTT inhibition of cell proliferation. Format: cell-based. The note with it: Homo sapiens, MCF7, 48 h.
Excerpt: as §1

Data set [5] relates to Hela. In words: MTT inhibition of cell proliferation. Format: cell-based. The following applies: Homo sapiens, 48 h.
Excerpt: as §1

For data set [6], the system named is HCT-15. In words: MTT inhibition of cell proliferation. The class given is cell-based. The note with it: Homo sapiens, 48 h.
Excerpt: as §1

A further data set has as its system HL-60. Put plainly: MTT inhibition of cell proliferation. Format: cell-based. The following applies: Homo sapiens, 48 h.
Excerpt: as §1

In the next data set the test system is OVCAR-5. In words: SRB percentage growth inhibition (NCI protocol). Format: cell-based. The following applies: Homo sapiens, 48 hrs exposure. The procedure: (§2) 2-Anilino nicotinyl linked 2-amino benzothiazoles conjugates of formula 4-8 have been tested against ten and eleven human cancer cell lines for 10 and 1 μM respectively derived from nine cancer types (leukemia, non-small cell lung cancer, colon cancer, CNS cancer, melanoma, ovarian cancer, renal cancer, prostate cancer and breast cancer) as per NCI protocol. For each compound, percentage of growth inhibition was calculated for individual cell lines at a minimum of two concentrations (1 and 10 μM). A protocol of 48 hrs continuous drug exposure was used, and a sulforhodamine B (SRB) protein assay was used to estimate cell viability or growth. The percentage of growth inhibition compared with the control was calculated in table 1 and table 2.

The subject of a further data set is DU145. In words: SRB percentage growth inhibition (NCI protocol). Format: cell-based. The following applies: Homo sapiens, DU-145, 48 hrs exposure. How it is done: as §2
Data set [7] relates to SiHa. In words: SRB percentage growth inhibition (NCI protocol). The class given is cell-based. The following applies: Homo sapiens, 48 hrs exposure. How it is done:
as §2

The next data set concerns A549. Put plainly: SRB percentage growth inhibition (NCI protocol). The class given is cell-based. The note with it: Homo sapiens, 48 hrs exposure. How it is done:
as §2

The next data set concerns PC-3. Put plainly: SRB percentage growth inhibition (NCI protocol). The class given is cell-based. The note with it: Homo sapiens, 48 hrs exposure. The procedure: as §2
For the next data set, the system named is 502713. In words: SRB percentage growth inhibition (NCI protocol). The class given is cell-based. The following applies: Homo sapiens, 48 hrs exposure. How it is done:
as §2

The test system of data set [8] is MCF-7. In words: SRB percentage growth inhibition (NCI protocol). The following applies: Homo sapiens, MCF7, 48 hrs exposure. Format: cell-based. How it is done:
as §2

In data set [9] the test system is Hela. Put plainly: SRB percentage growth inhibition (NCI protocol). Format: cell-based. The note with it: Homo sapiens, 48 hrs exposure. The procedure:
as §2

The subject of data set [10] is HCT-15. Put plainly: SRB percentage growth inhibition (NCI protocol). The following applies: Homo sapiens, 48 hrs exposure. Format: cell-based. The procedure:
as §2

A further data set has as its system IMR-32. Put plainly: SRB percentage growth inhibition (NCI protocol). The note with it: Homo sapiens, 48 hrs exposure. The class given is cell-based. How it is done: as §2
The subject of a further data set is Sw-620. In words: SRB percentage growth inhibition (NCI protocol). Format: cell-based. The following applies: Homo sapiens, 48 hrs exposure. The procedure:
as §2

In another data set the test system is HEP-2. In words: SRB percentage growth inhibition (NCI protocol). The note with it: Homo sapiens, 48 hrs exposure. The class given is cell-based. How it is done:
as §2

Another data set concerns SK-NS-H. In words: SRB percentage growth inhibition (NCI protocol). The class given is cell-based. The note with it: Homo sapiens, SK-N-SH, 48 hrs exposure. How it is done: as §2
For the next data set, the system named is IGR-OV-1. Put plainly: SRB percentage growth inhibition (NCI protocol). The following applies: Homo sapiens, IGROV-1, 48 hrs exposure. Format: cell-based. The procedure:
as §2

For the next data set, the system named is topoisomerase II. In words: DNA topoisomerase-II inhibition assay. The class given is biochemical. The following applies: 1 μM; etoposide 100 μM. The source says: DNA topoisomerases are nuclear enzymes capable of resolving the topology of DNA to allow its replication. So, proper relaxing is very important for successful replication cycle and thus for the cell survival. However, topoisomerases also serve as targets in the anticancer chemotherapy in which cell death serves an important purpose. Moreover, the topoisomerase targeting drugs can either be classified either topo posions, which act by stabilizing enzyme DNA cleavable complexes leading to DNA break or topo catalytic inhibitors, which act by stabilizing enzyme where both DNA strands remain intact and no DNA breaks occur. Importantly, all the topoisomerase inhibitors finally induce apoptosis. In the present study, all the five compounds 4-8 were first subjected to topoisomerase II inhibition assay.

Regarding `O=C(Nc1nc2ccc([N+](=O)[O-])cc2s1)c1cccnc1Nc1ccccc1` [Compound 4, N-3-(6-Nitro-1,3-benzothiazol-2-yl)-2-(phenylamino)-3-pyridinecarboxamide], the “Growth Inhibition (%)” value in data set [1] (10 mg/Kg i.p. day 1-9, read day 12) is given as 42.21%; in [1] (50 mg/Kg i.p. day 1-9, read day 12) it was “Intolerable”. The “No. of deaths / toxicity to animals” value in [1] (10 mg/Kg i.p.) is 2; in data set [1] (10 mg/Kg i.p., listed as Comp 4), 2/7; in data set [1] (50 mg/Kg i.p.) it was “toxic”; in [1] (50 mg/Kg i.p., listed as Comp 4) it was 7/7. Further, the IC50 in [2] was 70 µM; with SiHa [3] it was 28 µM; in the data set on MCF-7 [4] it was greater than 100 µM; with Hela [5], greater than 100 µM; with HCT-15 [6], greater than 100 µM; with HL-60, 0.58 µM. Further, in the data set on HL-60 cells (24 h, HL-60, compared to control), the “increase in DCF positive cell population (ROS)” value is 31%. Moreover, the inhibition at 1 µM was determined as 29% in the data set on OVCAR-5; 35% in the data set on DU145; 23% in the data set on A549; 22% in the data set with PC-3; 44% in the data set on MCF-7 [8]; 9% with Hela [9]. Besides, the inhibition at 1 µM in the data set with HCT-15 [10] worked out at 6%; with IMR-32 it was 35%; with Sw-620, 9%; with HEP-2 it was 50%; in the data set with IGR-OV-1, 29%. The inhibition at 10 µM in the data set on OVCAR-5 is 50%; in the data set with DU145, 52%; with SiHa [7] it was 53%; in the data set with A549, 31%; in the data set with 502713, 63%; with HCT-15 [10], 66%. Further, the inhibition at 10 µM in the data set with IMR-32 was found to be 45%; with Sw-620, 65%; with HEP-2, 26%; in the data set on SK-NS-H, 48%. Further, the “topoisomerase-II inhibition (DNA relaxation)” value in the data set with topoisomerase II is “more potent effect relative to etoposide”.

`O=C(Nc1nc2ccc([N+](=O)[O-])cc2s1)c1cccnc1Nc1ccc(Cl)cc1Cl` [Compound 7]: the “Growth Inhibition (%)” value in data set [1] (20 mg/Kg i.p. day 1-9, read day 12) is recorded as 63.89%; in [1] (40 mg/Kg i.p. day 1-9, read day 12), “Intolerable”. The “No. of deaths / toxicity to animals” value in [1] (20 mg/Kg i.p.) is recorded as “without any deaths”; in [1] (20 mg/Kg i.p., listed as Comp 7) it was 0/7; in data set [1] (40 mg/Kg i.p.) it was 7/7. Besides, the IC50 is 0.8 µM in data set [2]; greater than 50 µM in the data set with SiHa [3]; greater than 100 µM in the data set with MCF-7 [4]; greater than 100 µM in the data set on Hela [5]; greater than 100 µM in the data set on HCT-15 [6]; 0.4 µM in the data set on HL-60. The “DCF fluorescence (ROS positive cells), in words” value in the data set with HL-60 cells (24 hr, HL-60) is on record as “unchanged”. Moreover, the inhibition at 1 µM with OVCAR-5 turned out to be 19%; in the data set with DU145, 36%; in the data set with A549, 15%; in the data set with PC-3, 27%; with MCF-7 [8] it was 80%; with Hela [9] it was 0%. Further, the inhibition at 1 µM in the data set on HCT-15 [10] was 4%; in the data set with IMR-32, 42%; in the data set on Sw-620, 12%; in the data set with HEP-2, 46%; in the data set with IGR-OV-1, 24%. The inhibition at 10 µM was determined as 0% in the data set on OVCAR-5; 39% in the data set on DU145; 35% with SiHa [7]; 19% in the data set on A549; 2% in the data set on 502713; 75% in the data set with HCT-15 [10]. Further, the inhibition at 10 µM with IMR-32 was found to be 48%; in the data set with Sw-620, 61%; in the data set on HEP-2, 14%; in the data set with SK-NS-H it was 50%. The “topoisomerase-II inhibition (DNA relaxation)” value in the data set with topoisomerase II is “more potent effect relative to etoposide”.

Consider `CC(=O)O[C@H]1C(=O)[C@@]2(C)[C@H]([C@H](OC(=O)c3ccccc3)[C@]3(O)C[C@H](OC(=O)[C@H](O)[C@@H](NC(=O)c4ccccc4)c4ccccc4)C(C)=C1C3(C)C)[C@]1(OC(C)=O)CO[C@@H]1C[C@@H]2O` [Pac, paclitaxel, reference compound], for which the inhibition at 10 µM in the data set with OVCAR-5 was determined as 51%; in the data set on DU145, 42%; in the data set with SiHa [7], 49%; with A549 it was 41%; in the data set on 502713 it was 59%; with HCT-15 [10], 37%. For the same molecule, the inhibition at 10 µM in the data set on IMR-32 is 46%; in the data set with Sw-620, 73%; in the data set with SK-NS-H, 20%. Further, the values for the inhibition at 1 µM in the data set with DU145 and in the data set with A549 were 44% and 34%, respectively.

With `O=c1[nH]cc(F)c(=O)[nH]1` [Compound 5-FU, 5-fluorouracil, reference compound], the inhibition at 10 µM worked out at 22% with OVCAR-5; 44% in the data set on SiHa [7]; 21% with 502713; 44% in the data set with HCT-15 [10]; 71% in the data set on IMR-32; 76% in the data set with Sw-620. Further, testing at 10 µM in the data set on SK-NS-H gave an inhibition of 7%. For the same molecule, the inhibition at 1 µM in the data set on HCT-15 [10] came to 46%; with Sw-620 it was 44%.
